Results from patent US7427625B2, “Substituted thiatriazaacenaphthylene-6-carbonitrile kinase inhibitors” (Janssen Pharmaceutica, N.V., priority 2006, dated 2008).

Columns and labels:
EGFR = target: T1, EGFR (Homo sapiens, UniProt P00533); experiment: EGFR Kinase Assay; type: biochemical; settings: for inhibition at 2 µM: test concentration of 2 μM, read-out: EGFR percent inhibition
T1 construct: The intracellular portion of EGFR started at nucleotide 2189 (corresponding to amino acid 667) and ended at the termination codon; made in house; host or cells: Sf9 insect cells (baculovirus)
Source text: The EGFR kinase used was a fusion of Glutathione-S-Transferase (GST) and a PCR amplified intracellular portion of EGFR (NM_005228). The intracellular portion of EGFR started at nucleotide 2189 (corresponding to amino acid 667) and ended at the termination codon. The portion was PCR amplified with primers that added the lambda attB sequences to each end, recombined into an entry vector, then into a GST destination vector (as described in Gateway Technologies Manual by Invitrogen Corporation, Carlsbad, Calif.).
The destination vector was recombined in the DH10BAC strain of bacteria to produce a bacmid. The bacmid was transfected into Sf 9 cells and the supernatant containing the baculovirus was collected. The GSTEGFR protein was purified using large cultures of Sf 9 cells infected with stock virus. After an appropriate period of time, the cells were collected and lysed. The GSTEGFR was then purified from the lysate on Glutathione-Sepharose columns (as described by Amersham Biosciences, Buckinghamshire, United Kingdom).
The EGFR substrate was prepared by biotinylating polyGluTyr (128 mg) (Sigma, St. Louis, Mo.) in a 1×PBS buffer incubated together with a 12-fold molar excess of Sulfo-NHS-LC-Biotin on ice for at least 2 hrs. The free biotin was separated from the biotinylated polyGluTyr on a gel filtration column.
A mixture of a 10× kinase buffer (500 mM Tris at pH 8.0, 100 mM Magnesium Chloride and 1 mM Sodium Vanadate), DTT (1 mM final from 500 mM stock), ATP (5 μM final from 10 mM stock), biotinylated polyGluTyr (10 μg/μL stock), γ-^33P ATP (10 μCi/μL stock) and water was added to each well (90 μL/well) of a Streptavidin Flashplate (Perkin Elmer, Wellesley, Mass.).
Test compound in 100% DMSO (2 μL) was added to the appropriate wells. Diluted GSTEGFR (1:300 dilution in 50 mM Tris at pH 8.0 and 0.1% bovine serum albumin) (10 μL) was added to the wells to initiate the reactions.
The plates were incubated at 30° C. for 1 hr with shaking. The reacted contents were removed and the plates were sequentially washed three times with a 1×PBS stop buffer (300 μL without Magnesium and Calcium) and 100 mM EDTA. After the final wash, the same stop buffer (200 μL) was added to the wells. The plates were then sealed and read on the TopCount scintillation counter.
Test compounds were assayed in triplicate at 16 concentrations at half-log dilutions starting at 200 uM. A maximum and minimum signal for the assay was determined on each plate. The percent inhibition of a test compound was calculated according to the formula
For a series of test concentrations, the IC50 was derived by graphing percent inhibition against the log of the concentrations tested for a given compound. For those compounds without an IC50, the percent inhibition results are shown at a test concentration of 2 μM.

VEGF-R2 = target: T2, VEGF-R2 (Rattus norvegicus, UniProt O08775); experiment: VEGF-R2 Screening Assay; type: biochemical; settings: for inhibition at 1 µM: test concentration of 1 μM, read-out: VEGF-R2 percent inhibition
T2 construct: polyhistidine (N)
Method: (§1) A kinase reaction mixture was prepared containing 50 mM Tris-HCl at pH 8, 10 mM, MgCl20.1 mM […], 1 mM DTT, 10 μM ATP, 0.025 μM biotinylated histone-H1 peptide substrate and 0.2 μCuries per well ^33P-γ-ATP (2000-3000 Ci/mmol). 70 μL of the kinase reaction mixture was dispensed into the well of a Streptavidin FlashPlate.
(§2) Test compound stock in 100% DMSO (1 μL) was added to the wells resulting in a final concentration of 1% DMSO in the reaction with a 100 μL final reaction volume. Each enzyme was diluted in 50 mM Tris-HCl pH=8.0, 0.1% BSA and 30 μL was added to each well to initiate the reaction. The reaction was incubated for one hour at 30° C. At the end of the 1 hr incubation, the reaction was terminated by aspirating the mixture from the plate and washing the wells twice with PBS containing 100 mM EDTA. The biotinylated peptide substrate became immobilized on the Flashplate^198 and the incorporation of ^33P-γ-ATP was measured by reading the plate on a scintillation counter. Inhibition of the enzymatic activity was measured by observing a reduced amount of ^33P-γ-ATP incorporated into the immobilized peptide.
The VEGF-R2 enzyme is a fusion protein containing a polyhistidine tag at the N terminus followed by amino acids 786 to 1343 of the rat VEGF-R2 kinase domain (Accession number U93306). The assay used 150 ng of the N-terminal biotinylated peptide biotin-KHKKLAEGSAYEEV-amide (VEGF-R2) per well.
(§3) The IC50 was derived according to the procedure described in Example 2. For those compounds without an IC50, the percent inhibition results are shown at a test concentration of 1 μM.

Aurora-A = target: T3, Aurora-A (Mus musculus, UniProt P97477); experiment: Aurora-A Screening Assay; type: biochemical, murine; settings: for inhibition at 1 µM: test concentration of 1 μM, read-out: Aurora-A percent inhibition
T3 construct: followed by the full length protein encoding the murine Aurora-A; polyhistidine (N); made in house; host or cells: sf9 insect cells
T3 sequence (P97477 1-395): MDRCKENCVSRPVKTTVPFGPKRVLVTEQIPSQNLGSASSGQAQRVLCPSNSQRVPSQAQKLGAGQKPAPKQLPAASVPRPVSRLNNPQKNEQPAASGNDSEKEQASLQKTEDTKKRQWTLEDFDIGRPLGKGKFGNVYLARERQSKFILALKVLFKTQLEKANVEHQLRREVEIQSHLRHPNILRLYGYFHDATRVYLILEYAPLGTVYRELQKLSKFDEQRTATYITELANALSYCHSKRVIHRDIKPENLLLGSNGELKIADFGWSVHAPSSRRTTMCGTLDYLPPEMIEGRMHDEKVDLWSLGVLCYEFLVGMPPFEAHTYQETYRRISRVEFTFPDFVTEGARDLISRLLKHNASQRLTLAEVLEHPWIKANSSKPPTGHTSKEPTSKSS
Method: as §1, §2
Aurora-A is a fusion protein containing a polyhistidine tag at the N terminus followed by the full length protein encoding the murine Aurora-A (Accession number GB BC014711) expressed and purified from sf9 insect cells. The assay used 400 ng of the N-terminal biotinylated peptide biotin-GRTGRRNSI-amide (Aurora-A) per well.
as §3

HER-2 = target: T4, HER-2 (Homo sapiens, UniProt P04626); experiment: HER-2 Kinase Assay; type: biochemical; settings: for inhibition at 1 µM: test concentration of 1 μM, read-out: HER-2 percent inhibition
T4 construct: the nucleotides encoding amino acids 679 to 1255 of HER-2; purchased Proqinase (Freiburg, Germany)
Method: HER-2 kinase was purified at Proqinase (Freiburg, Germany) from a construct that consisted of a fusion of GST (Glutathione-S-Transferase), HIS6-Thrombin and the nucleotides encoding amino acids 679 to 1255 of HER-2.
A mixture of a 10× kinase reaction buffer (600 mM Hepes at pH 7.5, 30 mM Magnesium Chloride, 0.03 mM Sodium Vanadate and 500 μg/mL PEG 20,000), DTT (1.2 mM final from a 10 mM stock), ATP (1 μM from a 10 mM stock), biotinylated polyGluTyr (1.5 ng/μL final from stock of 1 μg/μL prepared by Upstate Biotechnologies, Lake Placid, N.Y.), Manganese Chloride (3 mM final from a 1 M stock), γ-^33P-ATP (10 μCi/μL stock) and water (70 μL/well) was added to each well of a Streptavidin Flashplate (Cat. #SMP103, NEN, Boston, Mass.).
Test compound stock (1 μL) was added to the appropriate wells. Diluted GSTHER2 kinase (6.7 ng/μL diluted into 50 mM Tris-HCl at pH 8.0 and 0.1% bovine serum albumin) (30 μL) was added (total volume of 200 ng/well) to initiate the reactions.
The reaction plates were incubated at 30° C. for 1 hr. The reaction was terminated by aspiring the reaction mixture from the plate wells and washing the wells three times with a 1×PBS stop buffer (300 μL) and 100 mM EDTA. After the final wash, the same stop buffer (200 μL) was again added to the wells. The plates were then sealed and read on the TopCount scintillation counter.
as §3

T1 sequence (P00533 669-1210 limits assumed): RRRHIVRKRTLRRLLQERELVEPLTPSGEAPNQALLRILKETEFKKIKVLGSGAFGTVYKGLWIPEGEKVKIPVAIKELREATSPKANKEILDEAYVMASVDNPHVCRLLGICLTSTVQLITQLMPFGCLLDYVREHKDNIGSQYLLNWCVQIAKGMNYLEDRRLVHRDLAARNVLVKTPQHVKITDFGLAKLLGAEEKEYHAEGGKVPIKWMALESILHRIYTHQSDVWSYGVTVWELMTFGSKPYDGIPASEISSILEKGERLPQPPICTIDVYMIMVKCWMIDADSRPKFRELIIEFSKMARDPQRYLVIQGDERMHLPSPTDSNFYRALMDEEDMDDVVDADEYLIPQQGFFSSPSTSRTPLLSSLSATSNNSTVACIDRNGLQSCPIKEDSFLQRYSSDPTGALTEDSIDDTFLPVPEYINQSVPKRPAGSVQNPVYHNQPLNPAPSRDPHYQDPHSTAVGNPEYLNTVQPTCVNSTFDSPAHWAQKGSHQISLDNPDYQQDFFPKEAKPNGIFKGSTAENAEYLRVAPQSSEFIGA
T4 sequence (P04626 679-1255): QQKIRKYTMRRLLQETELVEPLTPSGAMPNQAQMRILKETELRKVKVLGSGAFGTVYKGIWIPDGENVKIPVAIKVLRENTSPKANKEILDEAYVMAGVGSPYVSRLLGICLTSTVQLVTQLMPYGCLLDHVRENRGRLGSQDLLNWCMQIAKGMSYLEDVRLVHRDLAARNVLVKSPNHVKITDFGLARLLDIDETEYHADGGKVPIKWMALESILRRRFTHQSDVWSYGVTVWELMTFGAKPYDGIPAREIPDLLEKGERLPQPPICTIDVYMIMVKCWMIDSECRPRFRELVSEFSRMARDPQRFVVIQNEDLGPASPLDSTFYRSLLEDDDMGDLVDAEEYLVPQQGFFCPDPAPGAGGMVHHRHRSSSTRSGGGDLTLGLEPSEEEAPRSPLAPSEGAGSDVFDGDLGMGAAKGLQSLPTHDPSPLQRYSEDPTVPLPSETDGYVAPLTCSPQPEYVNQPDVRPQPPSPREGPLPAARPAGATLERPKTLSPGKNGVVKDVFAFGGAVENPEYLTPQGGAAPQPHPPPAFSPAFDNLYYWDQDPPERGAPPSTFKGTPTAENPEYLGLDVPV
T2 sequence (O08775 786-1343): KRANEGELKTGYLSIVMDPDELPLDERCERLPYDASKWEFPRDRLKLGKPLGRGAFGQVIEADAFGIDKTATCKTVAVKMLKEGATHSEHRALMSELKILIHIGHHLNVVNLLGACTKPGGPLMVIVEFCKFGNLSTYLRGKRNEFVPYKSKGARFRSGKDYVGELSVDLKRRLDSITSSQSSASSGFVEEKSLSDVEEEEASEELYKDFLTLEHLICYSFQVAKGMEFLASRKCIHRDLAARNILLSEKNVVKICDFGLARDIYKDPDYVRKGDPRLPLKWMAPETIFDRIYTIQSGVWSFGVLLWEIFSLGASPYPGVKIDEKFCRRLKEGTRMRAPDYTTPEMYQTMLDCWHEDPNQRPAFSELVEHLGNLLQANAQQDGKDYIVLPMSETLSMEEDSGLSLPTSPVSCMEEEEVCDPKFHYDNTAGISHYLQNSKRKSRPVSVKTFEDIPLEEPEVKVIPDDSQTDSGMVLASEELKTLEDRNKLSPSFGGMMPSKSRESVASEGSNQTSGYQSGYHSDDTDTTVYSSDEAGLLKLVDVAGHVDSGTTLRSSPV

| SMILES | IC50 (EGFR) | inhibition at 1 µM (VEGF-R2) | inhibition at 1 µM (Aurora-A) | inhibition at 1 µM (HER-2) | inhibition at 2 µM (EGFR) | IC50 (VEGF-R2) | IC50 (HER-2) | IC50 (Aurora-A) |
| --- | --- | --- | --- | --- | --- | --- | --- | --- |
| N#Cc1cnc2sc(C(=O)Nc3ccc(CN4CCCC(CO)C4)cc3)c3c2c1N(c1c(Cl)ccc2c1OCO2)C(=O)N3 (stereo not shown) [Cpd 20, 5-(5-chloro-benzo[1,3]dioxol-4-yl)-6-cyano-4-oxo-4,5-dihydro-3H-1-thia-3,5,8-triaza-acenaphthylene-2-carboxylic acid [4-(3-hydroxymethyl-piperidin-1-ylmethyl)-phenyl]-amide] | 0.91 µM | 24% | 21% | 41% |  |  |  |  |
| N#Cc1cnc2sc(C(=O)N3CCCC(CO)C3)c3c2c1N(c1c(Cl)ccc2c1OCO2)C(=O)N3 (stereo not shown) [Cpd 21, 5-(5-chloro-benzo[1,3]dioxol-4-yl)-2-(3-hydroxymethyl-piperidine-1-carbonyl)-4-oxo-4,5-dihydro-3H-1-thia-3,5,8-triaza-acenaphthylene-6-carbonitrile] |  |  | 3% | 13% | 32% | > 100 µM |  |  |
| N#Cc1cnc2sc(C(=O)Nc3ccc(CN4CCC(CO)CC4)cc3)c3c2c1N(c1c(Cl)ccc2c1OCO2)C(=O)N3 [Cpd 22, 5-(5-chloro-benzo[1,3]dioxol-4-yl)-6-cyano-4-oxo-4,5-dihydro-3H-1-thia-3,5,8-triaza-acenaphthylene-2-carboxylic acid [4-(4-hydroxymethyl-piperidin-1-ylmethyl)-phenyl]-amide] | 0.567 µM |  | 15% | 48% |  | > 100 µM |  |  |
| N#Cc1cnc2sc(C(=O)Nc3ccc(CN4CCC(O)CC4)cc3)c3c2c1N(c1c(Cl)ccc2c1OCO2)C(=O)N3 [Cpd 23, 5-(5-chloro-benzo[1,3]dioxol-4-yl)-6-cyano-4-oxo-4,5-dihydro-3H-1-thia-3,5,8-triaza-acenaphthylene-2-carboxylic acid [4-(4-hydroxy-piperidin-1-ylmethyl)-phenyl]-amide] | 0.598 µM | 28% | 16% | 44% |  |  |  |  |

Other lines, results leading:

| IC50 (EGFR) | inhibition at 1 µM (VEGF-R2) | inhibition at 1 µM (Aurora-A) | inhibition at 1 µM (HER-2) | inhibition at 2 µM (EGFR) | IC50 (VEGF-R2) | IC50 (HER-2) | IC50 (Aurora-A) | SMILES |
| --- | --- | --- | --- | --- | --- | --- | --- | --- |
|  | 14% | 7% | 12% | 24% |  |  |  | CC1COCC(C)N1Cc1ccc(NC(=O)c2sc3ncc(C#N)c4c3c2NC(=O)N4c2c(Cl)ccc3c2OCO3)cc1 (stereo not shown) [Cpd 24, 5-(5-chloro-benzo[1,3]dioxol-4-yl)-6-cyano-4-oxo-4,5-dihydro-3H-1-thia-3,5,8-triaza-acenaphthylene-2-carboxylic acid [4-(3,5-dimethyl-morpholin-4-ylmethyl)-phenyl]-amide] |
|  | 0% | 18% | 3% | 24% |  |  |  | C[C@@H]1CN(Cc2ccc(NC(=O)c3sc4ncc(C#N)c5c4c3NC(=O)N5c3c(Cl)ccc4c3OCO4)cc2)C[C@H](C)O1 [Cpd 25, 5-(5-chloro-benzo[1,3]dioxol-4-yl)-6-cyano-4-oxo-4,5-dihydro-3H-1-thia-3,5,8-triaza-acenaphthylene-2-carboxylic acid [4-(2,6-cis-dimethyl-morpholin-4-ylmethyl)-phenyl]-amide] |
| 2.02 µM | 11% | 23% |  |  |  | > 1 µM |  | N#Cc1cnc2sc(C(=O)Nc3ccc(CN4CCC(F)CC4)cc3)c3c2c1N(c1c(Cl)ccc2c1OCO2)C(=O)N3 [Cpd 26, 5-(5-chloro-benzo[1,3]dioxol-4-yl)-6-cyano-4-oxo-4,5-dihydro-3H-1-thia-3,5,8-triaza-acenaphthylene-2-carboxylic acid [4-(4-fluoro-piperidin-1-ylmethyl)-phenyl]-amide] |
|  |  |  |  |  | ~100 µM | 10.6 µM | > 10 µM | N#Cc1cnc2sc(C(=O)N3CCCC(F)C3)c3c2c1N(c1c(Cl)ccc2c1OCO2)C(=O)N3 (stereo not shown) [Cpd 43, 5-(5-chloro-benzo[1,3]dioxol-4-yl)-2-(3-fluoro-piperidine-1-carbonyl)-4-oxo-4,5-dihydro-3H-1-thia-3,5,8-triaza-acenaphthylene-6-carbonitrile] |
|  |  |  |  |  | > 10 µM | 1.1 µM | 1.1 µM | N#Cc1cnc2sc(C(=O)Nc3ccc(CN4CCCC(F)C4)cc3)c3c2c1N(c1c(Cl)ccc2c1OCO2)C(=O)N3 (stereo not shown) [Cpd 44, 5-(5-chloro-benzo[1,3]dioxol-4-yl)-6-cyano-4-oxo-4,5-dihydro-3H-1-thia-3,5,8-triaza-acenaphthylene-2-carboxylic acid [4-(3-fluoro-piperidin-1-ylmethyl)-phenyl]-amide] |
